Where two headings read alike, the source gives them in different places.
Key:
[1] = system: HL60
Description: (§1) Gemcitabine inhibits thymidylate synthetase, leading to inhibition of DNA synthesis and cell death. The cells were treated at concentrations of 0.01, 0.1, 1 and 10 μM in triplicate with appropriate controls.
(§2) A MTT cytotoxicity assay was performed. Optical density (OD) was determined for each sample, and IC50 values were determined (Graphpad Prism software using 4-parameter, non-linear curve fitting) for each drug relative to each cell line. The dose response of SN-38 and gemcitabine in the different cell lines was plotted.

[2] = system: NCI-H460
Description: as §1, §2

[3] = system: NCI-H460 cells; assay: DNA damage pathway markers in NCI-H460 cells treated ex vivo, laser scanning cytometry; format: cell-based; conditions: NCI-H460, 0.01 μM drug
Description: The cell lines, H460, HCT116, and HL60 were used in the study. H460 (30,000 cells/well) and HCT116 (15,000 cells/well) were grown in three 48 well plates. HL60 suspension cells were grown in five 25 cm flasks (1×10^6 cells/flask). Cells were treated with the following two concentrations of gemcitabine and SN-38:
Cells treated with DMSO (final concentration 0.01%) were used as the control. Following 24 hours of drug treatment, cells were washed and fixed at 0 hour, 6 hour, and 24 hour timepoints. Cells were then stained for detection of the following markers: γ-H2AX, survivin, BRCA1, BRCA2, FAD51, and ATM. Expression levels for each biomarker were determined based upon mean fluorescence intensity (MFI) by laser scanning cytometry (iCys).

[4] = system: HCT116 cells; assay: Biomarker assay qualification, drug-treated HCT116 cells, MFI by iCys; format: cell-based, human; conditions: HCT116 treated with 10 μM SN-38 for 24 hours
Description: Primary and secondary antibodies were obtained from commercial sources. Control (0.1% DMSO) and drug-treated (SN-38, 10 uM) tumor cell lines and peripheral blood mononuclear cells (PBMCs) from healthy donors were used for biomarker qualification. The cell lines employed were as follows: HCT 116 (human colon carcinoma), MCF7 (human breast adenocarcinoma), A549 (human lung carcinoma), and SK-BR-3 (human breast adenocarcinoma, derived from metastatic site).
Colorectal HCT-116 tumor cell lines treated with drug (SN-38, 10 μM) or DMSO (0.1%) were used as positive and negative controls, respectively, for the assay development for topoisomerase I and γ-H2Ax. […] After incubation, cells were detached using 0.25% trypsin for 2-5 minutes, washed, counted, fixed with 2% PFA for 20 minutes, and cytospun onto glass slides.
Colorectal HCT-116 tumor cell lines treated with drug (SN-38, 10 μM) or DMSO (0.1%) were used as positive and negative controls for the assay development of RAD51. […] After incubation, cells were detached using 0.25% trypsin for 2-5 minutes, washed, counted, fixed with 2% PFA for 20 minutes, and cytospun onto glass slides.
For each marker, one to three different antibodies were tested. […] Cells were cover slipped and fluorescence intensity was quantified using iCys (CompuCyte, Westwood, Mass.). […]

[5] = system: metastatic breast cancer
Description: Seventy patients were enrolled in the trial (n=35 per arm). […] Fifteen (21.4%) patients had received prior bevacizumab. Among five patients with HER2-positive disease, all had received prior trastuzumab; none had received prior lapatinib.
Patients were randomized 1:1 into two treatment arms, comparing the same dose with a different dosing frequency. 4-arm-PEG-gly-irino-20K was administered at 145 mg/m^2 every 14 days (q14d) or every 21 days (q21 d) as an intravenous infusion over 90 minutes on day 1. Patients received treatment until disease progression or unacceptable toxicity. The drug dosage was dose-reduced by 25 mg/m^2 for grade 3-4 hematologic toxicity, grade 3-4 diarrhea, and other grade 2-4 non-hematologic toxicities (other than alopecia, anorexia, asthenia, and untreated nausea/vomiting). Protocol retreatment criteria required that toxicities and hematologic parameters were resolved to the following grades or levels prior to administration of the next dose: diarrhea, fully resolved; other non-hematologic toxicities, grade 1; neutrophils≧1,500/mm^3; platelets≧100,000/mm^3; and hemoglobin≧9 g/dL.
Medical history was taken at screening and on day 1 of each cycle. Physical exam was performed and serum CA27.29, complete blood count with differential, and serum chemistry were analyzed at screening, on day 1 of each cycle, and at end of treatment. Coagulation parameters were analyzed at screening and on day 1 of each cycle. Radiologic exam (either computed tomography or magnetic resonance imaging, with the same method per lesion used throughout the study) occurred at screening (within 28 days of day one, cycle 1) and approximately every 6 weeks thereafter until progressive disease, start of new anticancer therapy, or end of study. Patients were contacted approximately every 3 months after the end-of-treatment visit to assess progression (in the absence of progression on study), survival, receipt of subsequent anti-cancer therapy, and resolution of toxicity.
Response was measured by RECIST version 1.0 (Therasse, P., et al., 2000, Journal of the National Cancer Institute, 92 (3), 205-216) and toxicities were graded according to the National Cancer Institute Common Terminology Criteria for Adverse Events (NCI-CTCAE) version 3.0.
The primary endpoint was ORR, with confirmation of all responses by a second imaging procedure at least 28 days from the initial observation of response. Secondary endpoints were PFS, overall survival (OS), 6-month and 1-year survival, and safety. Exploratory endpoints included change from baseline in CA27.29, UGT1A1 and ABCC2 polymorphism for correlation with select toxicities.
Three populations for analysis were defined: 1) intent-to-treat (ITT), 2) efficacy evaluable, and 3) safety. The ITT population was the primary population for all efficacy analyses and included all randomized patients. […] The safety population consisted of all patients who received at least one dose or partial dose of chemotherapeutic agent.
Summary statistics were used for continuous variables, frequency counts and percentages were used for categorical variables. Ninety-five percent confidence interval were calculated for ORR using the Exact method. Time-to-event variables were analyzed using the Kaplan-Meier method.

[6] = 24 hr drug + 24 hr without drug

CCc1c2c(nc3ccc(O)cc13)-c1cc3c(c(=O)n1C2)COC(=O)[C@]3(O)CC [SN-38]
dose response in MTT cytotoxicity assay ([1]; HL60, 72 hours, 0.01-10 μM): Good dose response
dose response in MTT cytotoxicity assay ([2]; H460, 72 hours, 0.01-10 μM): Good dose response
ATM % change in MFI ([3]; 24 hr drug): 120%
ATM % change of positive cells ([3]; 24 hr drug): 13%
BRCA1 % change in MFI ([3]; 24 hr drug): −8%
BRCA1 % change of positive cells ([3]; 24 hr drug): 143%
BRCA2 % change in MFI ([3]; 24 hr drug): −20%
BRCA2 % change of positive cells ([3]; 24 hr drug): 131%
RAD51 % change in MFI ([3]; 24 hr drug): −8%
RAD51 % change of positive cells ([3]; 24 hr drug): 180%
Survivin % change in MFI ([3]; 24 hr drug): 149%
Survivin % change of positive cells ([3]; 24 hr drug): −18%
yH2AX % change in MFI ([3]; 24 hr drug): 1%
yH2AX % change of positive cells ([3]; 24 hr drug): 235%
ATM % change in MFI ([3]; 24 hr drug + 6 hr without drug): 329%
ATM % change of positive cells ([3]; 24 hr drug + 6 hr without drug): 88%
BRCA1 % change in MFI ([3]; 24 hr drug + 6 hr without drug): −10%
BRCA1 % change of positive cells ([3]; 24 hr drug + 6 hr without drug): −52%
BRCA2 % change in MFI ([3]; 24 hr drug + 6 hr without drug): −16%
BRCA2 % change of positive cells ([3]; 24 hr drug + 6 hr without drug): 8%
RAD51 % change in MFI ([3]; 24 hr drug + 6 hr without drug): 120%
RAD51 % change of positive cells ([3]; 24 hr drug + 6 hr without drug): 337%
Survivin % change in MFI ([3]; 24 hr drug + 6 hr without drug): 203%
Survivin % change of positive cells ([3]; 24 hr drug + 6 hr without drug): 4%
yH2AX % change in MFI ([3]; 24 hr drug + 6 hr without drug): −7%
yH2AX % change of positive cells ([3]; 24 hr drug + 6 hr without drug): 919%
ATM % change in MFI [3, 6]: 41%
ATM % change of positive cells [3, 6]: 105%
BRCA1 % change in MFI [3, 6]: 162%
BRCA1 % change of positive cells [3, 6]: 3700%
BRCA2 % change in MFI [3, 6]: 263%
BRCA2 % change of positive cells [3, 6]: 261%
RAD51 % change in MFI [3, 6]: 32%
RAD51 % change of positive cells [3, 6]: 60%
Survivin % change in MFI [3, 6]: 210%
Survivin % change of positive cells [3, 6]: 85%
yH2AX % change in MFI [3, 6]: −77%
yH2AX % change of positive cells [3, 6]: 328%
γ-H2Ax High, MFI (x10^3) ([4]; staining panel 1): HCT116 (SN38), 487 x10^3
RAD51 High, MFI (x10^3) ([4]; staining panel 2): HCT116 (SN38), 948 x10^3

pentaerythritolyl-4-arm-(PEG-1-methylene-2 oxo-vinylamino acetate linked-irinotecan)-20K [4-arm-PEG-gly-irino-20K]
objective response rate (ORR) ([5]; 145 mg/m^2 IV, every 14 days or every 21 days): 28.6%
Overall Survival (OS) ([5]; Total): 10.3 months
Progression Free Survival (PFS) ([5]; Total): 4.6 months
Overall best CA27.29 response (50% or better decline in at least one observation from baseline) ([5]; Total, 16/45): 36% (16/45)
Overall Response Rate (ORR) ([5]; Total, N = 66): 29% (N = 66)
Overall Survival (OS) ([5]; q21d): (13.1 months in q21d)
Progression Free Survival (PFS) ([5]; q21d): (5.3 months in q21d)

Nc1ccn([C@@H]2O[C@H](CO)[C@@H](O)C2(F)F)c(=O)n1 [Gemcitabine, gemcitabine]
dose response in MTT cytotoxicity assay [1]: Good dose response
dose response in MTT cytotoxicity assay [2]: Good dose response
ATM % change in MFI ([3]; 24 hr drug): 125%
ATM % change of positive cells ([3]; 24 hr drug): −28%
BRCA1 % change in MFI ([3]; 24 hr drug): −3%
BRCA1 % change of positive cells ([3]; 24 hr drug): 162%
BRCA2 % change in MFI ([3]; 24 hr drug): −43%
BRCA2 % change of positive cells ([3]; 24 hr drug): 130%
RAD51 % change in MFI ([3]; 24 hr drug): 7%
RAD51 % change of positive cells ([3]; 24 hr drug): 62%
Survivin % change in MFI ([3]; 24 hr drug): −32%
Survivin % change of positive cells ([3]; 24 hr drug): −32%
yH2AX % change in MFI ([3]; 24 hr drug): 3%
yH2AX % change of positive cells ([3]; 24 hr drug): 204%
ATM % change in MFI ([3]; 24 hr drug + 6 hr without drug): 438%
ATM % change of positive cells ([3]; 24 hr drug + 6 hr without drug): 80%
BRCA1 % change in MFI ([3]; 24 hr drug + 6 hr without drug): 18%
BRCA1 % change of positive cells ([3]; 24 hr drug + 6 hr without drug): −54%
BRCA2 % change in MFI ([3]; 24 hr drug + 6 hr without drug): −28%
BRCA2 % change of positive cells ([3]; 24 hr drug + 6 hr without drug): 6%
RAD51 % change in MFI ([3]; 24 hr drug + 6 hr without drug): 127%
RAD51 % change of positive cells ([3]; 24 hr drug + 6 hr without drug): 613%
Survivin % change in MFI ([3]; 24 hr drug + 6 hr without drug): 223%
Survivin % change of positive cells ([3]; 24 hr drug + 6 hr without drug): 1%
yH2AX % change in MFI ([3]; 24 hr drug + 6 hr without drug): 40%
yH2AX % change of positive cells ([3]; 24 hr drug + 6 hr without drug): 1235%
ATM % change in MFI [3, 6]: 151%
ATM % change of positive cells [3, 6]: 40%
BRCA1 % change in MFI [3, 6]: 206%
BRCA1 % change of positive cells [3, 6]: 3750%
BRCA2 % change in MFI [3, 6]: 296%
BRCA2 % change of positive cells [3, 6]: 167%
RAD51 % change in MFI [3, 6]: 23%
RAD51 % change of positive cells [3, 6]: 260%
Survivin % change in MFI [3, 6]: 457%
Survivin % change of positive cells [3, 6]: −14%
yH2AX % change in MFI [3, 6]: 288%
yH2AX % change of positive cells [3, 6]: 1834%

Source: patent US9863949B2, “Method for predicting and evaluating responsiveness to cancer treatment with DNA-damaging chemotherapeutic agents” (NEKTAR THERAPEUTICS, priority 2013, dated 2018)
